# Source: patent US5919768A, “Di- and trivalent small molecule selectin inhibitors” (Texas Biotechnology Corporation, priority 1998, dated 1999)
# Key:
# E-selectin = biological target: T1, E-selectin (Homo sapiens, UniProt P16581); assay: Cell-protein assay: inhibition of binding of HL60 cells (expressing sialyl-Lewis^x) to E-selectin; settings: for IC50: HL60 cell binding to selectin fusion protein on magnetic beads
# T1 construct: amino terminal lectin, EGF, and complement regulatory-like repeats (CR) 1 and 2; made in house; host or cells: SF21 insect cells, baculovirus (BakPAK)
# T1 sequence (P16581 22-301): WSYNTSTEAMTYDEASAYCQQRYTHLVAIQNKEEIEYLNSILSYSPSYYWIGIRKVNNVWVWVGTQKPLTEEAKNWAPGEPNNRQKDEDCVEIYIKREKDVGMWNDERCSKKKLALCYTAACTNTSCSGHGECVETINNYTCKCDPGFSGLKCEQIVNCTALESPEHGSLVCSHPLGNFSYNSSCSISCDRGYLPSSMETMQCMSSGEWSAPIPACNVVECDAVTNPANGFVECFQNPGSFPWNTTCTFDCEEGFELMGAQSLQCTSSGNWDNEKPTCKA
# Protocol: (§1) Compounds were assayed for their ability to inhibit the binding of E-, P-, and/or L-selectin to sialyl-Lewis^x.
# (§2) The E-selectin binding assays involved assessing the ability of HL60 cells that express sialyl-Lewis^x and Lewis^x to purified E-selectin, P-selectin and L-selectin recombinant proteins (cell-protein assay). A similar binding assay utilizing purified glycolipids and purified L-selectin recombinant protein (glycolipid-protein) was used to assess L-selectin binding.
# (§3) All selectin fusion cassettes were generated by PCR from the E-selectin cDNA purchased from R&D Systems (Minneapolis, Minn.), and from the P-selectin and L-selectin cDNAs that were PCR cloned from total RNA extracted from human placenta. The mouse IgG cDNA was cloned from PCR amplified cDNA generated from RNA extracted from the hybridoma cell line 402C10. All fusion cassettes were expressed from baculovirus vectors using the BakPAK method and SF21 cells purchased from Clonetech.
# (§4) Recombinant fusion proteins were purified from baculovirus infected culture supernatants by immunoprecipitation using Dynal™ goat anti-mouse IgG coated magnetic beads. Mock beads were generated from uninfected SF21 culture supernatants.
# (§5) HL60 cells (10^7 cells) were fluorescently labeled with calcein AMC-3099 (Molecular Probes) in RPMI 1640 with 10% fetal calf serum (FCS). The magnetic beads (7 μl, 4×10^6 beads/ml) were incubated in duplicate wells of a flexible 96 well microtiter plate along with 7 μl of compound at various concentrations and 7 μl of calcein-labeled HL60 cells. The plates were incubated for ten minutes at room temperature. The plate was then placed on a magnetic separator and incubated for 2 more minutes. While the assay plate remained on the separator, unbound HL60 cells were removed and the wells were washed twice with phosphate buffered saline (PBS) to remove any remaining unbound cells. The HL60 cells remaining bound to the beads were inspected by microscopy and then lysed by adding […] of a 1% solution of NP40 in PBS. Binding was quantitated fluorimetrically using a Millipore Cytofluor 2350 fluorimeter.
# L-selectin = biological target: T2, L-selectin (Homo sapiens, UniProt P14151); assay: Selectin binding assay: inhibition of binding of L-selectin to sialyl-Lewis^x (cell-protein; glycolipid-protein assay also mentioned); settings: for IC50: in vitro selectin assay
# T2 construct: amino terminal lectin, EGF, and complement regulatory-like repeats (CR) 1 and 2; made in house; host or cells: SF21 insect cells, baculovirus (BakPAK)
# T2 sequence (P14151 39-318): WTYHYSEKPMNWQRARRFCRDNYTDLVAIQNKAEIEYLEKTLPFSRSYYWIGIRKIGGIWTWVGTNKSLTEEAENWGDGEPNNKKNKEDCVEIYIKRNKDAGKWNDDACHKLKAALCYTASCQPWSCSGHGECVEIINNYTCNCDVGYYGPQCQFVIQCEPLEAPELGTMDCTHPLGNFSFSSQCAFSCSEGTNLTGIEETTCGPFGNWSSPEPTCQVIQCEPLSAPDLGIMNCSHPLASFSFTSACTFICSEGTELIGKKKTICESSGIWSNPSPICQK
# Protocol: as §1, §2, §3, §4, §5
# P-selectin = biological target: T3, P-selectin (Homo sapiens, UniProt P16109); assay: Cell-protein assay: inhibition of binding of HL60 cells (expressing sialyl-Lewis^x) to P-selectin; settings: HL60 cell binding to selectin fusion protein on magnetic beads
# T3 construct: amino terminal lectin, EGF, and complement regulatory-like repeats (CR) 1 and 2; made in house; host or cells: SF21 insect cells, baculovirus (BakPAK)
# T3 sequence (P16109 42-321): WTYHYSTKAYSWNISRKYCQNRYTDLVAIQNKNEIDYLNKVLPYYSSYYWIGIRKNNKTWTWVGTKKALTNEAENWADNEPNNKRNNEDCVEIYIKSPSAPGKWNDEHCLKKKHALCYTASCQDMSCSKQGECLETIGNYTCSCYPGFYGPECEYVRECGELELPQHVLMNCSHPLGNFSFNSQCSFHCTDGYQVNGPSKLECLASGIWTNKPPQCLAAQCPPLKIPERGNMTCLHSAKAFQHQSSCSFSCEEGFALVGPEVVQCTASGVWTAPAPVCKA
# Protocol: as §1, §2, §3, §4, §5
SMILES,IC50 (L-selectin) [µM],IC50 (P-selectin) [µM],IC50 (E-selectin) [µM],further results
O=C(O)Cc1cccc(-c2cc(Cc3cccc(Cc4ccc(O[C@H]5O[C@H](CO)[C@@H](O)[C@H](O)[C@@H]5O)c(-c5cccc(CC(=O)O)c5)c4)c3)ccc2O[C@H]2O[C@H](CO)[C@@H](O)[C@H](O)[C@@H]2O)c1 [B-m],3000,220,,"inhibition at 1000 µM (E-selectin; at 1 mM, read-out: E-Selectin % inhib.): 0%"
O=C(O)Cc1cccc(-c2cc(Cc3ccc(Cc4ccc(O[C@H]5O[C@H](CO)[C@@H](O)[C@H](O)[C@@H]5O)c(-c5cccc(CC(=O)O)c5)c4)cc3)ccc2O[C@H]2O[C@H](CO)[C@@H](O)[C@H](O)[C@@H]2O)c1 [B-p],3000,2000,2000,
O=C(O)Cc1cccc(-c2cc(Cc3ccc(Oc4ccc(Cc5ccc(O[C@H]6O[C@H](CO)[C@@H](O)[C@H](O)[C@@H]6O)c(-c6cccc(CC(=O)O)c6)c5)cc4)cc3)ccc2O[C@H]2O[C@H](CO)[C@@H](O)[C@H](O)[C@@H]2O)c1 [C],,700,,"inhibition at 2000 µM (L-selectin; at 2 mM, read-out: L-Selectin % inhib.): 0%"
"O=C(O)Cc1cccc(-c2cc(CCCCc3ccc(O[C@H]4O[C@H](CO)[C@@H](O)[C@H](O)[C@@H]4O)c(-c4cccc(CC(=O)O)c4)c3)ccc2O[C@H]2O[C@H](CO)[C@@H](O)[C@H](O)[C@@H]2O)c1 [Compound A-4, 1,4-Bis-[3-(3-carboxymethylphenyl)-4-(2-α-D-mannopyranosyloxy)phenyl]butane]",2000,,,
O=C(O)Cc1cccc(-c2cc(CCCCCc3ccc(O[C@H]4O[C@H](CO)[C@@H](O)[C@H](O)[C@@H]4O)c(-c4cccc(CC(=O)O)c4)c3)ccc2O[C@H]2O[C@H](CO)[C@@H](O)[C@H](O)[C@@H]2O)c1 [Compound A-5],300,300,400,
O=C(O)Cc1cccc(-c2cc(CCCCCCCc3ccc(O[C@H]4O[C@H](CO)[C@@H](O)[C@H](O)[C@@H]4O)c(-c4cccc(CC(=O)O)c4)c3)ccc2O[C@H]2O[C@H](CO)[C@@H](O)[C@H](O)[C@@H]2O)c1 [Compound A-7],,400,500,
O=C(O)Cc1cccc(-c2cc(CCCCCCCCCc3ccc(O[C@H]4O[C@H](CO)[C@@H](O)[C@H](O)[C@@H]4O)c(-c4cccc(CC(=O)O)c4)c3)ccc2O[C@H]2O[C@H](CO)[C@@H](O)[C@H](O)[C@@H]2O)c1 [Compound A-9],,1000,1000,
O=C(O)Cc1cccc(-c2cc(CCCSCCCSCCCc3ccc(O[C@H]4O[C@H](CO)[C@@H](O)[C@H](O)[C@@H]4O)c(-c4cccc(CC(=O)O)c4)c3)ccc2O[C@H]2O[C@H](CO)[C@@H](O)[C@H](O)[C@@H]2O)c1 [D],,500,,"inhibition at 2000 µM (E-selectin; at 2 mM, read-out: E-Selectin % inhib.): 29%"
O=C(O)COc1cccc(-c2cc(CCCCCCc3ccc(O[C@H]4O[C@H](CO)[C@@H](O)[C@H](O)[C@@H]4O)c(-c4cccc(OCC(=O)O)c4)c3)ccc2O[C@H]2O[C@H](CO)[C@@H](O)[C@H](O)[C@@H]2O)c1 [E],1400,540,3270,
O=C(O)Cc1cccc(-c2cc(C(=O)CCCCC(=O)c3ccc(O[C@H]4O[C@H](CO)[C@@H](O)[C@H](O)[C@@H]4O)c(-c4cccc(CC(=O)O)c4)c3)ccc2O[C@H]2O[C@H](CO)[C@@H](O)[C@H](O)[C@@H]2O)c1 [F],3000,1000,1000,
O=C(O)Cc1cccc(-c2cc(CCCC(=O)N3CCC(CCCC4CCN(C(=O)CCCc5ccc(O[C@H]6O[C@H](CO)[C@@H](O)[C@H](O)[C@@H]6O)c(-c6cccc(CC(=O)O)c6)c5)CC4)CC3)ccc2O[C@H]2O[C@H](CO)[C@@H](O)[C@H](O)[C@@H]2O)c1 [G],,1000,,"inhibition at 3000 µM (L-selectin; at 3 mM, read-out: L-Selectin % inhib.): 0%"
O=C(O)Cc1cccc(-c2cc(Cc3cc(Cc4ccc(O[C@H]5O[C@H](CO)[C@@H](O)[C@H](O)[C@@H]5O)c(-c5cccc(CC(=O)O)c5)c4)cc(Cc4ccc(O[C@H]5O[C@H](CO)[C@@H](O)[C@H](O)[C@@H]5O)c(-c5cccc(CC(=O)O)c5)c4)c3)ccc2O[C@H]2O[C@H](CO)[C@@H](O)[C@H](O)[C@@H]2O)c1 [H],500,200,700,
O=C(O)Cc1cccc(-c2cc(C(=O)CSCc3cc(CSCC(=O)c4ccc(O[C@H]5O[C@H](CO)[C@@H](O)[C@H](O)[C@@H]5O)c(-c5cccc(CC(=O)O)c5)c4)cc(CSCC(=O)c4ccc(O[C@H]5O[C@H](CO)[C@@H](O)[C@H](O)[C@@H]5O)c(-c5cccc(CC(=O)O)c5)c4)c3)ccc2O[C@H]2O[C@H](CO)[C@@H](O)[C@H](O)[C@@H]2O)c1 [J],2000,,4000,
